Assay results published in patent US6149937A, “Liposome encapsulated amphiphilic drug compositions” (priority 1996, dated 2000).
Like-named read-outs stand apart in the source and are kept apart here. *1 amine or outer side, *2 acyl side, *3 side chain or, on linkers, in order; H or OH if unused. Where a SMILES comes first, the peptide text is derived from it. Bridges are numbered along the chain shown (N, C = ends). Roman numbers before positions name the chains, in order. [ ]: non-standard residue; d: D form. Actinocin(9to1) = Cc1c2oc3c(C)ccc(C(=O)[*:1])c3nc-2c(C(=O)[*:2])c(N)c1=O; NMeV = CN[CH](C(=O)O)C(C)C; Sar = CNCC(=O)O

How the values were obtained:
[1] = cited from earlier work
[2] = cited from earlier work; remark: listed apart in the source
[3] = Crystals in liposomal BP^0 formulations; format: physicochemical
Method: These films were hydrated by 1 ml buffer at pH 8.1 and suspended as MLVs with bupivacaine crystals inside and outside the phospholipid […] by freeze-etching electron microscopy. […] This film was suspended as MLVs in 1 ml buffer pH 8.1. […] No crystals were detected from the ratio 17 and above (Table VII).

[4] = Release of bupivacaine from the liposomal BP^0 formulation at pH 7.4; format: physicochemical
[5] = Entrapment of BP^+ into MLVs; format: physicochemical; settings: for encapsulation efficiency: EPC/BP^+ 6, pH 6.5
Method: The bupivacaine concentration was measured by UV spectrophotometry at 271.6 nm. After extraction of BP^+ in chloroform with EPC, 27.5 mg of cholesterol were added thereto. After evaporation of the organic solvent under an inert atmosphere and drying of the lipid film, hydration was carried out at pH 6.5. The encapsulation efficiency was measured by UV spectrophotometry at 271.6 nm.

[6] = Rate of release of BP^+ from MLVs at pH 7.4; format: physicochemical
Method: A further preparation of liposomal BP^+ pH 6.5 prepared as described above was inserted into a dialysis bag (5 ml containing 353.25 mg EPC and 25 mg BP^+). The bag was immersed in 145 ml PBS pH 7.4 with a renewal rate of 23 ml/hour. Samples of the pH 7.4 medium were harvested at different times and the concentration of bupivacaine was measured by UV spectrophotometry.

[7] = not told
[8] = cited from earlier work; for animal or human results of liposome association: lipid-layer encapsulated
[9] = EPC/oxine 4.8, pH 7.4
[10] = 10 ml PBS pH 7.4
bacteria = settings: References 30-33; listed as oxine; cited from earlier work
[11] = not given; remark: listed apart in the source
[12] = cited from earlier work; remark: listed apart in the source
[13] = cited from earlier work; remark: listed apart in the source
[14] = pH 7.8
[15] = Entrapment of tin(II) dioxinate into MLVs; format: physicochemical
Method: Egg yolk phosphatidylcholine (14.4 mg, 18.3 μmol) and cholesterol (5.6 mg, 13.7 μmol) were dissolved in chloroform with 0.1, 0.2, 0.3, 0.4, 0.5 mg (1.2 μmol) and 0.6 mg tin(II) dioxinate. After evaporation of the solvent, hydration occurred with NaCl 150 mM 1 ml. The MLVs thus prepared were washed 5 times in order to discard free tin(II) dioxinate.
The number of tin(II) dioxinate molecules inserted into liposomes increased with the number of SnOx2 molecules present in the preliposomal lipid film. Liposomal saturation occurred for a number of moles averaging 1.23 μmoles SnOx2 inserted into 18.3 μmoles EPC (EPC/SnOx2 mole ratio of 15) with an encapsulation efficiency of 30% for MLVs.

[16] = Release of tin(II) dioxinate from MLVs at pH 7.4; format: physicochemical
[17] = not given; remark: listed apart in the source
[18] = Cell membrane permeation predicted by TAMMO combined with liposomal entrapment and release assays; settings: concluded from TAMMO and liposome assays
[19] = MP^0 release from MLVs (dialysis bag, PBS pH 7.4); format: physicochemical
[20] = Entrapment of MP^+ into MLVs; format: physicochemical; settings: EPC/morphine 98, pH 4.5, n=5, referred to 1 mg initially dissolved
[21] = pH 7.4, 37° C.
[22] = formulation with crystals, pH 7.4

## Cc1cccc(C)c1NC(=O)C1CCCCN1C (centres unmarked) [Mepivacaine, mepivacaine]
[1]; octanol/water
  Log Poct: -0.1
[2]; Table II
  pKs: 7.76

## CCCCN1CCCCC1C(=O)Nc1c(C)cccc1C (centres unmarked) [BP^0]
[3]; EPC/BP ratio 17 and above
  Crystals: No crystals
[3]; EPC/BP ratio up to 16
  Crystals: presence of bupivacaine crystals
[3]; EPC/BP^0 ratio 13 or above
  Crystals: without crystals
[3]; EPC/BP^0 ratio 17
  Crystals: 0
[3]; EPC/BP^0 ratio 20
  Crystals: 0
[3]; EPC/BP^0 ratio 22
  Crystals: 0
[3]; EPC/BP^0 ratio 25
  Crystals: 0
[4]; Table III, PL/X 5
  Release: 24 to 48 h
[4]; crystal-free
  release compared with crystal-containing formulation: slower
[4]; crystal-free, 230.56 mg EPC, 5 mg BP^0, pH 7.4
  peak concentration: 5 to 8 µg/mL
[4]; crystal-free, pH 7.4
  time to complete clearance: 3 days
  time to peak: 6 h
[4]; formulation with crystals, 14.4 mg EPC, 5 mg BP^0, pH 7.4, 37° C.
  maximal concentration: 7 to 8 µg/mL
[4]; [22]
  time to maximal concentration: 6 to 12 h
  time to release of the whole amount: 2 days
[5]; Table III, PL/X 5
  AE (encapsulation efficiency): 75%
[5]; after 2 hours
  encapsulation efficiency: 60±1%
[5]; after 24 hours
  encapsulation efficiency: 74±0.5%
[5]; from 5 mg BP^+, 70.65 mg EPC
  BP^+ inserted into MLVs: 3.7 mg
[6]; 1 ml formulation, pH 7.4
  duration of release: 24 to 48 h
  time to maximal concentration: 6 to 12 h
[6]; 5 ml formulation in dialysis bag, pH 7.4
  duration of release: 72 h
[6]; 6 hour, 5 ml in dialysis bag, pH 7.4
  rapid transfer of unencapsulated bupivacaine: 25%
[6]; Table III, PL/X 5
  Release: 72 h
[7]
  ability to cross cell membranes: able to cross cell membranes
[8]; BP^+ in liposomal aqueous phase, Reference 13
  sensory block: prolongation of the sensory block
[8]; BP^+ in liposomal aqueous phase, Reference 29
  motor block: outlasted the analgesic action

## Oc1cccc2cccnc12 [Oxine, 8-hydroxyquinoline]
[9]
  oxine entrapped in MLVs: 50%
[9]; from 0.7 mg
  oxine entrapped in MLVs: 0.35 mg
[10]
  time of release of a bulk of the liposomal compound: 20 min
[1]; not logarithmic
  partition coefficient octanol/water: 67
bacteria
  bactericidal activity (words): acts as a bactericidal agent by crossing the bacterial cell membrane

## CCN(CC)CCOC(=O)c1ccc(N)cc1Cl [Chlorprocaine, chlorprocaine]
[1]; Table II
  Log Poct: -0.8

## CCCN(CC)C(CC)C(=O)Nc1c(C)cccc1C (centres unmarked) [Etidocaine, etidocaine]
[1]; octanol/water
  Log Poct: 2.1

## Cc1c2oc3c(C)ccc(C(=O)NC4C(=O)NC(C(C)C)C(=O)N5CCCC5C(=O)N(C)CC(=O)N(C)C(C(C)C)C(=O)OC4C)c3nc-2c(C(=O)NC2C(=O)NC(C(C)C)C(=O)N3CCCC3C(=O)N(C)CC(=O)N(C)C(C(C)C)C(=O)OC2C)c(N)c1=O (centres unmarked) [actinomycin D] (I: TVP[Sar][NMeV] / II: TVP[Sar][NMeV]; ester I:1-I:C, II:1-II:C; linker I:N-II:N via Actinocin(9to1); configuration not given here)
[8]
  animal or human results of liposome association: promising animal or effective human results

## CCOC(=O)C1(c2ccccc2)CCN(C)CC1 [Meperidine, meperidine]
[1]; octanol/water
  Log Poct: 1.3

## Clc1cccc(Cl)c1N=C1NCCN1 [Clonidine, clonidine]
14.4 mg EPC, 0.5 mg CL^0, pH 7.8, n=6
  encapsulation efficiency: 14.5%±0.4
[11]; pH 7.4, after 1 hour
  leakage from vesicles after 1 hour: Almost all
[1]; octanol/water
  Log Poct: 1.59
[2]
  pK / pKa: 8.2
[12]
  solubility in organic solvents: soluble in octanol when uncharged
[12]; water or acidic solution
  solubility in aqueous medium: highly soluble in acidic solution as a cation
[13]; human, in vivo
  duration of hypotensive action: 1 days

## CCN(CC)CCOC(=O)c1ccc(N)cc1 [Procaine, procaine]
[1]; octanol/water
  Log Poct: -1.7

## CCCCNc1ccc(C(=O)OCCN(C)C)cc1 [Tetracaine, tetracaine]
[1]; octanol/water
  Log Poct: 0.6

## Clc1cccc(Cl)c1NC1=NCCN1 [CL^0]
[14]
  proportion of species: 28.5%
[14]; listed as CL^+
  proportion of species: 71.5%
Table III, PL/X 5
  AE (encapsulation efficiency): 14.5%
[11]; Table III, PL/X 5
  Release: 0.5 h

## CN1CC[C@]23c4c5ccc(O)c4O[C@H]2[C@@H](O)C=C[C@H]3[C@H]1C5 [Morphine, morphine]
[13]; intramuscular, epidural or intrathecal
  duration of action: ≥ 12 h

## CCCNC(C)C(=O)Nc1ccccc1C (centres unmarked) [Prilocaine, prilocaine]
[1]; Table II
  Log Poct: -0.05

## tin(II) dioxinate
[15]; 18.3 μmoles EPC
  SnOx2 inserted at liposomal saturation: ~1.23 µmol
[15]; MLVs
  EPC/SnOx2 mole ratio at saturation: 15
[15]; MLVs, EPC/SnOx2 15
  encapsulation efficiency: 30%
[15]; Table III, PL/X 6
  AE (encapsulation efficiency): 30%
[16]; Table III, PL/X 6
  Release: > 72 h
[16]; pH 7.4, for at least one week
  Release: no release
[17]; chloroform
  limit of solubility in chloroform: 400 µM
[17]; chloroform with epc
  limit of solubility in chloroform: 4100 µM
[18]
  ability to cross cell membranes: unable to cross the cell membrane

## CCCCN1CCCCC1C(=O)Nc1c(C)cccc1C (centres unmarked) [Bupivacaine, bupivacaine]
[8]
  animal or human results of liposome association: promising animal or effective human results
[1]; Table II
  Log Poct: 1.4
[1]; Table III
  Log Poct: 3.6
[1]; clonidine: octanol/buffer pH 7.4
  log of the partition coefficient between water and octanol: 1.8
[13]; human, in vivo
  plasma level at which systemic toxicity becomes apparent: ~1600 ng/mL
  therapeutic concentration: 1 µg/mL
[13]; peripheral nerve blocks
  duration of analgesic action: up to 12 hours

## CN1CC[C@]23c4c5ccc(O)c4O[C@H]2[C@@H](O)C=C[C@H]3[C@H]1C5 [MP^0]
[19]; EPC/MP^0 10
  crystals in the dialysis bag at the end of release: No crystals
[19]; EPC/MP^0 10, 26 and 52
  Release: sustained and prolonged
[19]; EPC/MP^0 10, pH 7.4
  duration of release: 48 h
[19]; EPC/MP^0 26, pH 7.4
  duration of release: 30 h
[19]; EPC/MP^0 52, pH 7.4
  duration of release: 24 h
[19]; Table III, PL/X 10
  Release: 48 h
[19]; Table III, PL/X 26
  Release: 30 h
[19]; Table III, PL/X 52
  Release: 24 h
[20]
  encapsulation: 31.2±2.1%
[21]
  duration of slow decrease of concentration: 3 days
  time to maximal concentration: 1 h
